Like-named read-outs stand apart in the source and are kept apart here.

Data on 22 compounds can be found in patent US5138067A, “Lipid derivatives” (Shionogi & Co. Ltd., priority 1991, dated 1992).

For test [1], the system named is platelet aggregation induced by PAF. As to conditions: known property of the reference compound; cited from earlier work.
The test system is the same in test [2]. The test can be described thus: PAF-induced platelet aggregation inhibition (method of Born, aggregometer, platelet rich plasma). Format: cell-based. As to conditions: in vitro, rabbit PRP 50-55×10^4 /μl, 37° C., PAF C16 final 20 nM added 2 minutes after compound, read-out: IC50 (concentration of the test compounds which inhibit 50% platelet aggregation). The procedure:
Mature male rabbits (NIBS-JW, RABITON Institute Inc., weighing 2.2-2.5 kg) were used. […] (The total volume of blood sample in each tube was adjusted to 8 ml.)
The blood sample in each tube was gently shaken and then centrifuged for 10 minutes at 200 g at 22° C. to give platelet rich plasma (PRP). The remaining blood was further centrifuged at 3,000 rpm (about 1,900 g) for 10 minutes at 22° C. to give platelet-poor plasma (PPP).
PRP was diluted with PPP to prepare a blood sample whose platelet number was 50-55×10^4 /μl. The sample was then subjected to a platelet aggregation test.
A volume of 230 μl of PRP, whose platelet number was adjusted to 50-55×10^4 /μl, was placed in a measuring cuvette and set in the aggregometer. PRP was warmed at 37° C. for 1 minute with stirring at 1,200 rpm, and then a solution of the test compound [dimethylsulfoxide solution (1μl) of the compound+saline (9μl)] was added thereto. Exactly 2 minutes later, 10 μl of platelet activating factor (PAF, C16) (final concentration: 20 nM) was added as a platelet aggregating agent, and the change in light transmission caused by platelet aggregation was recorded.
The light transmissions of PRP and PPP were taken as 0% and 100% aggregation, respectively, and the maximum light transmission after addition of an aggregating agent was made the maximum aggregation. The inhibition rate of the platelet aggregation was expressed as the percentage of the maximum aggregation by a test compound to that by a control (Vehicle added group).

[3] abbreviates: Oryctolagus cuniculus, Platelet, 2 min.

Turning to `CCCCC[C@H](O)/C=C/[C@H]1[C@H](O)CC(=O)[C@@H]1CCCCCCC(=O)O` [PGE1, reference compound], the “inhibition of PAF-induced platelet aggregation (known)” value in test [1] was “potently inhibit the PAF-induced platelet aggregation”. Moreover, the IC50 in test [2] (setting [3]) amounted to 259 nM. Turning to `CCCCCCCCCCCCCCCCSCC(CNS(=O)(=O)CCC[n+]1cccc2ccccc21)NC(=O)OC(C)(C)C` (centres unmarked) [I e8, 2-tert-butoxycarbonylamino-1-hexadecylthio-3-(3-quinoliniopropylsulfonylamino)propane iodide], the IC50 in test [2] (setting [3]) was 1970 nM.

As to `CCCCCCCCCCCCCCCCCCNC(=O)SCC(CNS(=O)(=O)CCC[n+]1cccc2ccccc21)OC` (centres unmarked) [I a25, 2-methoxy-1-octadecylcarbamoylthio-3-(3-quinoliniopropylsulfonylamino)propane iodide], the IC50 in test [2] (setting [3]) is 360 nM.

In the case of `CCCCCCCCCCCCCCCCCCNC(=O)OCC(CNS(=O)(=O)CCC[N+]1(C)CCOCC1)OC` (centres unmarked) [I a4], the IC50 in test [2] (setting [3]) was found to be 64200 nM. Take `CCCCCCCCCCCCCCCCCCNC(=O)OCC(CNS(=O)(=O)CCC[n+]1cccc2ccccc21)Oc1ccon1` (centres unmarked) [I j3, 2-(3-isoxazolyloxy)-1-octadecylcarbamoyloxy-3-(3-quinoliniopropylsulfonylamino)propane iodide]: in test [2] (setting [3]), the IC50 came out at 250 nM. On the same count and under the same terms, with `CCCCCCCCCCCCCCCCCCNC(=O)OCC(CNS(=O)(=O)CCC[n+]1cccc2ccccc21)NC(C)=O` (centres unmarked) [I g4, 2-acetamido-1-octadecylcarbamoyloxy-3-(3-quinoliniopropylsulfonylamino)propane iodide] the figure was 1830 nM; with `CCCCCCCCCCCCCCCCCCNC(=O)OCC(CNS(=O)(=O)CCCC[n+]1cccc2ccccc21)OC` (centres unmarked) [I a14], 1290 nM. On the same count and under the same terms, in the case of `CCCCCCCCCCCCCCCCCCNC(=O)OCC(CNS(=O)(=O)CCC[n+]1ccncc1)OC` (centres unmarked) [I a6] it was 45400 nM; in that of `CCCCCCCCCCCCCCCCSCC(CNS(=O)(=O)CCC[N+](C)(C)C)n1nnc(C)n1` (centres unmarked) [I h1, 1-hexadecylthio-2-(5-methyl-2H-tetrazol-2-yl)-3-(3-trimethylammoniopropylsulfonylamino)propane iodide], 23200 nM. Still for that read-out and setting: in the case of `CCCCCCCCCCCCCCCCCCNC(=O)OCC(CNS(=O)(=O)CCC[n+]1cccc2ccccc21)OC(=O)NC` (centres unmarked) [I c3, 2-methylcarbamoyloxy-1-octadecylcarbamoyloxy-3(3-quinoliniopropylsulfonylamino)propane iodide] it was 330 nM; in that of `CCCCCCCCCCCCCCCCOCC(CNS(=O)(=O)CCC[N+](C)(C)C)OC` (centres unmarked) [I a10, 1-hexadecyloxy-2-methoxy-3-(3-trimethylammoniopropylsulfonylamino)propane iodide], 79900 nM. In the case of `CCCCCCCCCCCCCCCCCCNC(=O)SCC(CNS(=O)(=O)CCC[n+]1ccsc1)OC` (centres unmarked) [I a26, 2-methoxy-1-octadecylcarbamoylthio-3-(3-thiazoliniopropylsulfonylamino)propane iodide], in test [2] (setting [3]), the IC50 was determined as 1930 nM. Same read-out and setting: with `CCCCCCCCCCCCCCCCCCNC(=O)OCC(COC)CN(C(C)=O)S(=O)(=O)CCC[n+]1cccc2ccccc21` (centres unmarked) [I k6, 3-(N-acetyl-3-quinoliniopropylsulfonylamino)-2-methoxymethyl-1-octadecylcarbamoyloxypropane iodide] the figure was 340 nM; with `CCCCCCCCCCCCCCCCCCNC(=O)OCC(CNS(=O)(=O)CCC[n+]1cscc1C)OC` (centres unmarked) [I a5], 1890 nM; with `CCCCCCCCCCCCCCCCSCC(CNS(=O)(=O)CCC[n+]1ccsc1)OC` (centres unmarked) [I a9, 1-hexadecylthio-2-methoxy-3-(3-thiazoliopropylsulfonylamino)propane iodide], 3640 nM. For `CCCCCCCCCCCCCCCCCCNC(=O)OCC(CNS(=O)(=O)CCC[n+]1ccsc1)OC` (centres unmarked) [I a2, 2-methoxy-1-octadecylcarbamoyloxy-3-(3-thiazoliopropylsulfonylamino)propane iodide], in test [2] (setting [3]), the IC50 amounted to 1890 nM.

Regarding `CCCCCCCCCCCCCCCCCCNC(=O)OCC1(CNS(=O)(=O)CCC[n+]2cccc3ccccc32)CCCO1` (centres unmarked) [I b2, 2-octadecylcarbamoyloxymethyl-2-(3-qunoliniopropylsulfonylaminomethyl)tetrahydrofuran iodido], the IC50 in test [2] (setting [3]) is 385 nM. On the same count and under the same terms, in the case of `CCCCCCCCCCCCCCCCCCNC(=O)OCC(CNS(=O)(=O)CCC[n+]1cccc2ccccc21)NC(=O)NC` (centres unmarked) [I f3, 1-octadecylcarbamoyloxy-2-(3-methylureido)-3-(3-quinoliniopropylsulfonylamino)propane iodide] it was 965 nM; in that of `CCCCCCCCCCCCCCCCCCNC(=O)OCC(CNS(=O)(=O)CCC[N+](C)(C)C)OC` (centres unmarked) [I a1, 2-methoxy-1-octadecylcarbamoyloxy-3-(3-trimethylammoniosulfonylamino)propane chloride], 48100 nM. As to `CCCCCCCCCCCCCCCCOCC(CNS(=O)(=O)CCC[n+]1ccsc1)OC` (centres unmarked) [I a11, 1-hexadecyloxy-2-methoxy-3-(3-thiazoliopropylsulfonylamino)propane iodide], the IC50 in test [2] (setting [3]) stood at 2970 nM. Same read-out and setting: with `CCCCCCCCCCCCCCCCCCNC(=O)OCC(CNS(=O)(=O)CCC[n+]1cccc2ccccc21)OC` (centres unmarked) [I a7] the figure was 650 nM.

Consider `CCCCCCCCCCCCCCCCCCNC(=O)OCC(CNS(=O)(=O)CCCC[n+]1ccc2ccccc2c1)OC` (centres unmarked) [I a20], for which the IC50 in test [2] was 16000 nM.
